Test results as given in patent publication US11053204B2, “Pyrimidinyloxy benzene derivatives as herbicides” (FMC Corporation, priority 2015, dated 2021).

How the values were obtained:
Type in all cases: in vivo
[1] = test system: barnyardgrass (Echinochloa crus-galli); experiment: Test A postemergence, visual injury rating; settings: 0 is no effect, 100 is complete control
How it was run: (§1)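 Visual 0–100 rating (100 = complete control) taken about 10 d post-treatment relative to untreated checks. Preemergence: directed soil spray on sown loam/sand pots. Postemergence: seedlings 2–10 cm, 1–2 leaf. Non-phytotoxic solvent formulation with surfactant.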

[2] = test system: wheat (Triticum aestivum); experiment: Test A postemergence, visual injury rating; settings: 0 is no effect, 100 is complete control
How it was run: as §1

[3] = test system: corn (Zea mays); experiment: Test A postemergence, visual injury rating; settings: 0 is no effect, 100 is complete control
How it was run: as §1

[4] = test system: Italian ryegrass (Lolium multiflorum); experiment: Test A postemergence, visual injury rating; settings: 0 is no effect, 100 is complete control
How it was run: as §1

[5] = test system: blackgrass (Alopecurus myosuroides); experiment: Test A postemergence, visual injury rating; settings: 0 is no effect, 100 is complete control
How it was run: as §1

[6] = test system: ragweed (common ragweed, Ambrosia elatior); experiment: Test A postemergence, visual injury rating; settings: 0 is no effect, 100 is complete control
How it was run: as §1

[7] = test system: kochia (Kochia scoparia); experiment: Test A postemergence, visual injury rating; settings: 0 is no effect, 100 is complete control
How it was run: as §1

[8] = test system: giant foxtail (Setaria faberii); experiment: Test A postemergence, visual injury rating; settings: 0 is no effect, 100 is complete control
How it was run: as §1

[9] = test system: pigweed (Amaranthus retroflexus); experiment: Test A postemergence, visual injury rating; settings: 0 is no effect, 100 is complete control
How it was run: as §1

[10] = test system: galium (catchweed bedstraw, Galium aparine); experiment: Test A postemergence, visual injury rating; settings: 0 is no effect, 100 is complete control
How it was run: as §1

[11] = test system: wheat (winter wheat, Triticum aestivum); experiment: Test C postemergence, plant response rating; settings: for Plant response rating, Wheat: scale 0 to 100; for Wheat plant response rating: scale 0 to 100 (0 no effect, 100 complete control)
How it was run: (§2)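 Greenhouse plants rated visually against untreated controls 13–15 d after treatment, scale 0 = no effect to 100 = complete control. Postemergence sprays went onto potted plants 2–18 cm tall (1–4 leaves); preemergence sprays onto soil freshly sown in loam–sand or silt loam, chemicals formulated in non-phytotoxic solvent with surfactant.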

[12] = test system: chickweed (common chickweed, Stellaria media); experiment: Test C postemergence, plant response rating; settings: for Plant response rating, Chickweed: scale 0 to 100; for Chickweed plant response rating: scale 0 to 100 (0 no effect, 100 complete control)
How it was run: as §2

[13] = test system: ryegrass, Italian (Italian ryegrass, Lolium multiflorum); experiment: Test C postemergence, plant response rating; settings: for Plant response rating, Ryegrass, Italian: scale 0 to 100; for Ryegrass, Italian plant response rating: scale 0 to 100 (0 no effect, 100 complete control)
How it was run: as §2

[14] = test system: waterhemp (common waterhemp, Amaranthus rudis); experiment: Test C postemergence, plant response rating; settings: for Plant response rating, Waterhemp: scale 0 to 100; for Waterhemp plant response rating: scale 0 to 100 (0 no effect, 100 complete control)
How it was run: as §2

[15] = test system: foxtail, giant (giant foxtail, Setaria faberii); experiment: Test C postemergence, plant response rating; settings: for Plant response rating, Foxtail, Giant: scale 0 to 100; for Foxtail, Giant plant response rating: scale 0 to 100 (0 no effect, 100 complete control)
How it was run: as §2

[16] = test system: oilseed rape (Brassica napus); experiment: Test C postemergence, plant response rating; settings: for Plant response rating, Oilseed Rape: scale 0 to 100; for Oilseed Rape plant response rating: scale 0 to 100 (0 no effect, 100 complete control)
How it was run: as §2

[17] = test system: blackgrass (Alopecurus myosuroides); experiment: Test C postemergence, plant response rating; settings: for Plant response rating, Blackgrass: scale 0 to 100; for Blackgrass plant response rating: scale 0 to 100 (0 no effect, 100 complete control)
How it was run: as §2

[18] = test system: soybean (Glycine max); experiment: Test C postemergence, plant response rating; settings: for Plant response rating, Soybean: scale 0 to 100; for Soybean plant response rating: scale 0 to 100 (0 no effect, 100 complete control)
How it was run: as §2

[19] = test system: galium (catchweed bedstraw, Galium aparine); experiment: Test C postemergence, plant response rating; settings: for Plant response rating, Galium: scale 0 to 100; for Galium plant response rating: scale 0 to 100 (0 no effect, 100 complete control)
How it was run: as §2

[20] = 125 g ai/ha, 0 to 100 scale, approximately 10 days

O=C(OCC(F)(F)F)c1c(Br)cccc1Oc1ncc(Cl)cn1 [Compound 35]
Barnyardgrass plant response rating (0 to 100 scale) ([1]; 125 g ai/ha): 10
Barnyardgrass plant response rating (0 to 100 scale) ([1]; 500 g ai/ha): 80
Wheat plant response rating (0 to 100 scale) ([2]; 125 g ai/ha): 0
Wheat plant response rating (0 to 100 scale) ([2]; 500 g ai/ha): 20
Corn plant response rating (0 to 100 scale) ([3]; 125 g ai/ha): 20
Corn plant response rating (0 to 100 scale) ([3]; 500 g ai/ha): 30
Ryegrass, Italian plant response rating (0 to 100 scale) ([4]; 125 g ai/ha): 0
Ryegrass, Italian plant response rating (0 to 100 scale) ([4]; 500 g ai/ha): 40
Blackgrass plant response rating (0 to 100 scale) ([5]; 125 g ai/ha): 40
Blackgrass plant response rating (0 to 100 scale) ([5]; 500 g ai/ha): 80
Ragweed plant response rating (0 to 100 scale) ([6]; 125 g ai/ha): 0
Ragweed plant response rating (0 to 100 scale) ([6]; 500 g ai/ha): 0
Kochia plant response rating (0 to 100 scale) ([7]; 125 g ai/ha): 90
Kochia plant response rating (0 to 100 scale) ([7]; 500 g ai/ha): 100
Foxtail, Giant plant response rating (0 to 100 scale) ([8]; 125 g ai/ha): 40
Foxtail, Giant plant response rating (0 to 100 scale) ([8]; 500 g ai/ha): 100
Pigweed plant response rating (0 to 100 scale) ([9]; 125 g ai/ha): 100
Pigweed plant response rating (0 to 100 scale) ([9]; 500 g ai/ha): 100
Galium plant response rating (0 to 100 scale) ([10]; 125 g ai/ha): 60
Galium plant response rating (0 to 100 scale) ([10]; 500 g ai/ha): 100
Plant response rating, Wheat ([11]; 16 g ai/ha): 0
Plant response rating, Wheat ([11]; 31 g ai/ha): 0
Wheat plant response rating ([11]; 62 g ai/ha): 0
Wheat plant response rating ([11]; 125 g ai/ha): 0
Plant response rating, Chickweed ([12]; 16 g ai/ha): 5
Plant response rating, Chickweed ([12]; 31 g ai/ha): 40
Chickweed plant response rating ([12]; 62 g ai/ha): 45
Chickweed plant response rating ([12]; 125 g ai/ha): 50
Plant response rating, Ryegrass, Italian ([13]; 16 g ai/ha): 0
Plant response rating, Ryegrass, Italian ([13]; 31 g ai/ha): 0
Ryegrass, Italian plant response rating ([13]; 62 g ai/ha): 5
Ryegrass, Italian plant response rating ([13]; 125 g ai/ha): 5
Plant response rating, Waterhemp ([14]; 16 g ai/ha): 65
Plant response rating, Waterhemp ([14]; 31 g ai/ha): 80
Waterhemp plant response rating ([14]; 62 g ai/ha): 90
Waterhemp plant response rating ([14]; 125 g ai/ha): 95
Plant response rating, Foxtail, Giant ([15]; 16 g ai/ha): 5
Plant response rating, Foxtail, Giant ([15]; 31 g ai/ha): 10
Foxtail, Giant plant response rating ([15]; 62 g ai/ha): 10
Foxtail, Giant plant response rating ([15]; 125 g ai/ha): 20
Plant response rating, Oilseed Rape ([16]; 16 g ai/ha): 20
Plant response rating, Oilseed Rape ([16]; 31 g ai/ha): 30
Oilseed Rape plant response rating ([16]; 62 g ai/ha): 50
Oilseed Rape plant response rating ([16]; 125 g ai/ha): 65
Plant response rating, Blackgrass ([17]; 16 g ai/ha): 0
Plant response rating, Blackgrass ([17]; 31 g ai/ha): 0
Blackgrass plant response rating ([17]; 62 g ai/ha): 10
Blackgrass plant response rating ([17]; 125 g ai/ha): 10
Plant response rating, Soybean ([18]; 16 g ai/ha): 25
Plant response rating, Soybean ([18]; 31 g ai/ha): 25
Soybean plant response rating ([18]; 62 g ai/ha): 35
Soybean plant response rating ([18]; 125 g ai/ha): 35
Plant response rating, Galium ([19]; 16 g ai/ha): 35
Plant response rating, Galium ([19]; 31 g ai/ha): 35
Galium plant response rating ([19]; 62 g ai/ha): 55
Galium plant response rating ([19]; 125 g ai/ha): 60

N#Cc1cccc(Oc2ncc(Cl)cn2)c1CCCC(F)(F)F [Compound 72]
Barnyardgrass plant response rating (0 to 100 scale) ([1]; 125 g ai/ha): 80
Barnyardgrass plant response rating (0 to 100 scale) ([1]; 500 g ai/ha): 100
Wheat plant response rating [2, 20]: 10
Wheat plant response rating (0 to 100 scale) ([2]; 500 g ai/ha): 40
Corn plant response rating (0 to 100 scale) ([3]; 125 g ai/ha): 50
Corn plant response rating (0 to 100 scale) ([3]; 500 g ai/ha): 60
Ryegrass, Italian plant response rating [4, 20]: 10
Ryegrass, Italian plant response rating (0 to 100 scale) ([4]; 500 g ai/ha): 40
Blackgrass plant response rating (0 to 100 scale) ([5]; 125 g ai/ha): 30
Blackgrass plant response rating (0 to 100 scale) ([5]; 500 g ai/ha): 50
Ragweed plant response rating [6, 20]: 10
Ragweed plant response rating (0 to 100 scale) ([6]; 500 g ai/ha): 30
Kochia plant response rating [7, 20]: 100
Kochia plant response rating (0 to 100 scale) ([7]; 500 g ai/ha): 100
Foxtail, Giant plant response rating (0 to 100 scale) ([8]; 125 g ai/ha): 70
Foxtail, Giant plant response rating (0 to 100 scale) ([8]; 500 g ai/ha): 100
Pigweed plant response rating [9, 20]: 100
Pigweed plant response rating (0 to 100 scale) ([9]; 500 g ai/ha): 100
Galium plant response rating (0 to 100 scale) ([10]; 125 g ai/ha): 80
Galium plant response rating (0 to 100 scale) ([10]; 500 g ai/ha): 100
Plant response rating, Wheat ([11]; 16 g ai/ha): 0
Plant response rating, Wheat ([11]; 31 g ai/ha): 0
Wheat plant response rating ([11]; 62 g ai/ha): 0
Wheat plant response rating ([11]; 125 g ai/ha): 5
Plant response rating, Chickweed ([12]; 16 g ai/ha): 65
Plant response rating, Chickweed ([12]; 31 g ai/ha): 85
Chickweed plant response rating ([12]; 62 g ai/ha): 90
Chickweed plant response rating ([12]; 125 g ai/ha): 98
Plant response rating, Ryegrass, Italian ([13]; 16 g ai/ha): 5
Plant response rating, Ryegrass, Italian ([13]; 31 g ai/ha): 5
Ryegrass, Italian plant response rating ([13]; 62 g ai/ha): 10
Ryegrass, Italian plant response rating ([13]; 125 g ai/ha): 15
Plant response rating, Waterhemp ([14]; 16 g ai/ha): 85
Plant response rating, Waterhemp ([14]; 31 g ai/ha): 80
Waterhemp plant response rating ([14]; 62 g ai/ha): 90
Waterhemp plant response rating ([14]; 125 g ai/ha): 90
Plant response rating, Foxtail, Giant ([15]; 16 g ai/ha): 30
Plant response rating, Foxtail, Giant ([15]; 31 g ai/ha): 30
Foxtail, Giant plant response rating ([15]; 62 g ai/ha): 20
Foxtail, Giant plant response rating ([15]; 125 g ai/ha): 20
Plant response rating, Oilseed Rape ([16]; 16 g ai/ha): 50
Plant response rating, Oilseed Rape ([16]; 31 g ai/ha): 60
Oilseed Rape plant response rating ([16]; 62 g ai/ha): 0
Oilseed Rape plant response rating ([16]; 125 g ai/ha): 65
Plant response rating, Blackgrass ([17]; 16 g ai/ha): 5
Plant response rating, Blackgrass ([17]; 31 g ai/ha): 10
Blackgrass plant response rating ([17]; 62 g ai/ha): 10
Blackgrass plant response rating ([17]; 125 g ai/ha): 30
Plant response rating, Soybean ([18]; 16 g ai/ha): 60
Plant response rating, Soybean ([18]; 31 g ai/ha): 70
Soybean plant response rating ([18]; 62 g ai/ha): 40
Soybean plant response rating ([18]; 125 g ai/ha): 70
Plant response rating, Galium ([19]; 16 g ai/ha): 80
Plant response rating, Galium ([19]; 31 g ai/ha): 80
Galium plant response rating ([19]; 62 g ai/ha): 5
Galium plant response rating ([19]; 125 g ai/ha): 98
